# Measured values taken from patent US20250144067A1, “PERSONALIZED STARVATION THERAPY FOR CANCER” (Faeth Therapeutics, Inc., priority 2021, published 2025).
# Counter-ions that a name gives are not always drawn. Like-named read-outs stand apart in the source and are kept apart here. Peptide text beside a SMILES is read from it.
# Experiments:
# [1] = test system: NCI-H292 lung cancer cells; test: FDA drug screening, complete media vs cholesterol-free media with simvastatin (TABLE 2); format: cell-based, human
# [2] = test system: NCI-H292 lung cancer cells; test: FDA drug screening, complete media vs cholesterol-free media without statin (TABLE 1); format: cell-based, human
# [3] = NCI-H292 cells, drug in cholesterol-free media with simvastatin 0.04 μM
# [4] = NCI-H292 cells, drug in complete media
# [5] = complete media vs cholesterol-free media + simvastatin (0.04 μM), >0 enhanced anti-cancer activity, about 0 neutral, <0 antagonist
# [6] = Complete minus Cholesterol-free, greater than 0 enhanced anti-cancer activity, about 0 neutral, below 0 antagonist
# [7] = NCI-H292 cells, FDA drug library screen, cholesterol-free media without statin
# [8] = NCI-H292 cells, FDA drug library screen, complete media
# [9] = NCI-H292 cells, FDA library drug in cholesterol-free media with simvastatin 0.04 μM
# [10] = NCI-H292 cells, FDA library drug in complete media
# [11] = Complete minus Cholesterol-free, >0 enhanced anti-cancer activity, about 0 neutral, <0 antagonist
# [12] = NCI-H292 cells, cholesterol-free media without statin
# [13] = NCI-H292 cells, cholesterol-free media without statin, FDA drug library screen
# [14] = NCI-H292 cells, complete media, FDA drug library screen
# [15] = complete vs cholesterol-free media, >0 enhanced anti-cancer activity, about 0 neutral, <0 antagonist
# [16] = NCI-H292 cells, cholesterol-free media with simvastatin 0.04 μM, FDA drug library screen (TABLE 2)
# [17] = NCI-H292 cells, complete media, FDA drug library screen (TABLE 2)
# [18] = complete media minus cholesterol-free media + simvastatin (0.04 μM), >0 enhanced anti-cancer activity, about 0 neutral, <0 antagonist
# [19] = NCI-H292 cells, cholesterol-free media with simvastatin 0.04 μM, cell growth value in FDA drug screen
# [20] = NCI-H292 cells, complete media, cell growth value in FDA drug screen
# [21] = complete media minus cholesterol-free media + simvastatin, >0 enhanced anti-cancer activity, about 0 neutral, <0 antagonist
# [22] = Complete minus Cholesterol-free, greater than 0 enhanced anti-cancer activity, about 0 neutral, below 0 antagonists
# [23] = NCI-H292 cells in cholesterol-free media without statin
# [24] = NCI-H292 cells in complete media
# [25] = NCI-H292 cells, FDA drug library screen, cholesterol-free media with simvastatin 0.04 μM
# [26] = complete media vs cholesterol-free media + simvastatin (0.04 μM), […]
# [27] = Complete minus Cholesterol-free, […]
smiles,measurement,setting,value
Cc1cnc(Nc2ccc(OCCN3CCCC3)cc2)nc1Nc1cccc(S(=O)(=O)NC(C)(C)C)c1 [Fedratinib (hydrochloride hydrate)],Cholesterol-free media + simvastatin (0.04 μM),[1]; [3],0.6402
same,Complete Media,[1]; [4],0.3774
same,Difference,[1]; [5],−0.26
same,Difference,[2]; [6],−0.13
same,Cholesterol-free,[2]; [7],0.469
same,Complete,[2]; [8],0.341
Cc1cnc(Nc2ccc(OCCN3CCCC3)cc2)nc1Nc1cccc(S(=O)(=O)NC(C)(C)C)c1 [Fedratinib],Cholesterol-free media + simvastatin (0.04 μM),[1]; [9],0.6759
same,Complete Media,[1]; [10],0.284
same,Difference,[1]; [5],−0.39
same,Difference,[2]; [11],−0.27
same,Cholesterol-free,[2]; [12],0.5626
same,Complete,"[2]; NCI-H292 cells, complete media",0.2926
NC(=O)OCC(COC(N)=O)c1ccccc1 [Felbamate],Cholesterol-free media + simvastatin (0.04 μM),[1]; [3],1.169
same,Complete Media,[1]; [4],0.9237
same,Difference,[1]; [5],−0.25
same,Cholesterol-free,[2]; [13],0.9609
same,Complete,[2]; [14],1.103
same,Difference,[2]; [15],0.14
O=C(O)Cc1ccc(-c2ccccc2)cc1 [Felbinac],Cholesterol-free media + simvastatin (0.04 μM),[1]; [16],1.215
same,Complete Media,[1]; [17],1.199
same,Difference,[1]; [18],−0.02
same,Cholesterol-free,[2]; [13],0.7335
same,Complete,[2]; [14],1.335
same,Difference,[2]; [15],0.60
CCOC(=O)C1=C(C)NC(C)=C(C(=O)OC)C1c1cccc(Cl)c1Cl (stereo not drawn) [Felodipine],Cholesterol-free media + simvastatin (0.04 μM),[1]; [3],1.148
same,Complete Media,[1]; [4],0.9051
same,Difference,[1]; [5],−0.24
same,Difference,[2]; [11],−0.19
same,Cholesterol-free,[2]; [12],1.202
same,Complete,"[2]; NCI-H292 cells, complete media",1.01
"NCCCC[C@H](NC(=O)[C@@H]1CCCN1C(=O)[C@@H]1CSSC[C@H](N)C(=O)N[C@@H](Cc2ccccc2)C(=O)N[C@@H](Cc2ccccc2)C(=O)N[C@@H](CCC(N)=O)C(=O)N[C@@H](CC(N)=O)C(=O)N1)C(=O)NCC(N)=O [Felypressin] (HELM PEPTIDE1{C.F.F.Q.N.C.P.K.G.[am]}$PEPTIDE1,PEPTIDE1,1:R3-6:R3$$$V2.0)",Cholesterol-free media + simvastatin (0.04 μM),[1],1.091
same,Complete Media,[1],0.9792
same,Difference,[1],−0.11
same,Cholesterol-free,[2],0.991
same,Complete,[2],0.8009
same,Difference,[2],−0.19
O=C(O)CCC(=O)c1ccc(-c2ccccc2)cc1 [Fenbufen],Cholesterol-free media + simvastatin (0.04 μM),[1]; [19],0.8759
same,Complete Media,[1]; [20],0.8928
same,Difference,[1]; [21],0.02
same,Difference,[2]; [22],−0.96
same,Cholesterol-free,[2]; [23],1.772
same,Complete,[2]; [24],0.811
COP(=S)(OC)Oc1ccc([N+](=O)[O-])c(C)c1 [Fenitrothion],Cholesterol-free media + simvastatin (0.04 μM),[1]; [25],1.585
same,Complete Media,[1]; [8],1.426
same,Difference,[1]; [26],−0.16
same,Difference,[2]; [27],−0.22
same,Cholesterol-free,[2]; [12],0.8622
same,Complete,"[2]; NCI-H292 cells, complete media",0.6445
CC(C)OC(=O)C(C)(C)Oc1ccc(C(=O)c2ccc(Cl)cc2)cc1 [Fenofibrate],Cholesterol-free media + simvastatin (0.04 μM),[1]; [3],1.641
same,Complete Media,[1]; [4],1.401
same,Difference,[1]; [5],−0.24
same,Difference,[2]; [11],−0.06
same,Cholesterol-free,[2]; [13],0.8551
same,Complete,[2]; [14],0.7932
CC(C)(Oc1ccc(C(=O)c2ccc(Cl)cc2)cc1)C(=O)O [Fenofibric acid],Cholesterol-free media + simvastatin (0.04 μM),[1]; [19],0.9473
same,Complete Media,[1]; [20],1.061
same,Difference,[1]; [21],0.11
same,Cholesterol-free,[2]; [12],1.435
same,Complete,"[2]; NCI-H292 cells, complete media",1.058
same,Difference,"[2]; complete vs cholesterol-free media, greater than 0 enhanced anti-cancer activity, about 0 neutral, below 0 antagonists",−0.38
CC(C(=O)O)c1cccc(Oc2ccccc2)c1 (stereo not drawn) [Fenoprofen (Calcium hydrate)],Cholesterol-free media + simvastatin (0.04 μM),[1]; [3],1.224
same,Complete Media,[1]; [4],1.032
same,Difference,[1]; [5],−0.19
same,Difference,[2]; [11],−0.23
same,Cholesterol-free,[2]; [12],1.081
same,Complete,"[2]; NCI-H292 cells, complete media",0.8539
CC(Cc1ccc(O)cc1)NCC(O)c1cc(O)cc(O)c1 (stereo not drawn) [Fenoterol (hydrobromide)],Cholesterol-free media + simvastatin (0.04 μM),[1]; [16],0.9531
same,Complete Media,[1]; [17],0.9512
same,Difference,"[1]; complete media minus cholesterol-free media + simvastatin (0.04 μM), […]",0.00
same,Difference,[2]; [27],−0.09
same,Cholesterol-free,[2]; [7],1.404
same,Complete,[2]; [8],1.311
O=C1NCC2(CCN(CCc3ccccc3)CC2)O1 [Fenspiride (Hydrochloride)],Cholesterol-free media + simvastatin (0.04 μM),[1]; [3],1.105
same,Complete Media,[1]; [4],0.9138
same,Difference,[1]; [5],−0.19
same,Cholesterol-free,[2]; [13],0.597
same,Complete,[2]; [14],0.752
same,Difference,[2]; [15],0.15
CCNC(=O)[C@@H]1CCCN1C(=O)[C@H](CCCNC(=N)N)NC(=O)[C@H](CC(C)C)NC(=O)CNC(=O)[C@H](Cc1ccc(O)cc1)NC(=O)[C@H](CO)NC(=O)[C@H](Cc1c[nH]c2ccccc12)NC(=O)[C@H](Cc1c[nH]cn1)NC(=O)[C@@H]1CCC(=O)N1 [Fertirelin] (HELM PEPTIDE1{[Glp].H.W.S.Y.G.L.R.P.[CCN[*:1]]}$$$$V2.0),Cholesterol-free media + simvastatin (0.04 μM),[1]; [3],1.367
same,Complete Media,[1]; [4],1.138
same,Difference,[1]; [26],−0.23
same,Difference,[2]; [27],−0.12
same,Cholesterol-free,[2]; [7],0.9867
same,Complete,[2]; [8],0.8642
COc1cc(/C=C/C(=O)O)ccc1O.[Na] [Ferulic acid (sodium)],Cholesterol-free media + simvastatin (0.04 μM),[1]; [16],0.806
same,Complete Media,[1]; [17],0.766
same,Difference,[1]; [18],−0.04
same,Cholesterol-free,[2]; [13],1.137
same,Complete,[2]; [14],1.309
same,Difference,[2]; [15],0.17
COc1cc(/C=C/C(=O)O)ccc1O [Ferulic acid],Cholesterol-free media + simvastatin (0.04 μM),[1]; [9],1.055
same,Complete Media,[1]; [10],0.7118
same,Difference,[1]; [5],−0.34
same,Difference,[2]; [11],−0.23
same,Cholesterol-free,[2]; [12],1.087
same,Complete,"[2]; NCI-H292 cells, complete media",0.8516
CC(C)C(=O)Oc1ccc(CO)cc1[C@H](CCN(C(C)C)C(C)C)c1ccccc1 [Fesoterodine (L-mandelate)],Cholesterol-free media + simvastatin (0.04 μM),[1]; [25],1.103
same,Complete Media,[1]; [8],0.9892
same,Difference,[1]; [5],−0.11
same,Cholesterol-free,[2]; [13],0.7419
same,Complete,[2]; [14],1.264
same,Difference,[2]; [15],0.52
CC(C)C(=O)Oc1ccc(CO)cc1[C@H](CCN(C(C)C)C(C)C)c1ccccc1 [Fesoterodine],Cholesterol-free media + simvastatin (0.04 μM),[1]; [9],1.104
same,Complete Media,[1]; [10],0.8265
same,Difference,[1]; [5],−0.28
same,Cholesterol-free,[2]; [13],0.8973
same,Complete,[2]; [14],1.535
same,Difference,[2]; [15],0.64
CC(C)(C(=O)O)c1ccc(C(O)CCCN2CCC(C(O)(c3ccccc3)c3ccccc3)CC2)cc1 (stereo not drawn) [Fexofenadine (hydrochloride)],Cholesterol-free media + simvastatin (0.04 μM),[1]; [9],1.402
same,Complete Media,[1]; [10],1.104
same,Difference,[1]; [5],−0.30
same,Difference,[2]; [11],−0.02
same,Cholesterol-free,[2]; [13],1.052
same,Complete,[2]; [14],1.034
NC(=O)[C@@H]1C[C@]2(NC(=O)NC2=O)c2cc(F)ccc2O1 [Fidarestat],Cholesterol-free media + simvastatin (0.04 μM),[1],1.63
same,Complete Media,[1],1.736
same,Difference,[1],0.11
same,Cholesterol-free,[2],1.491
same,Complete,[2],0.686
same,Difference,[2],−0.80
CCc1c(Cl)c(O)c(Cl)c(O)c1C(=O)O[C@H]1[C@H](O)[C@H](OC)[C@H](OC/C2=C\C=C\C[C@H](O)/C(C)=C/[C@H](CC)[C@@H](O[C@@H]3OC(C)(C)[C@@H](OC(=O)C(C)C)[C@H](O)[C@@H]3O)/C(C)=C/C(C)=C/C[C@@H]([C@@H](C)O)OC2=O)O[C@@H]1C [Fidaxomicin],Cholesterol-free media + simvastatin (0.04 μM),[1]; [9],1.494
same,Complete Media,[1]; [10],1.227
same,Difference,[1]; [5],−0.27
same,Difference,[2]; [22],−0.71
same,Cholesterol-free,[2]; [23],1.405
same,Complete,[2]; [24],0.6951
CCCCc1nc(C)c(CC(=S)N(C)C)c(=O)n1Cc1ccc(-c2ccccc2-c2nnn[nH]2)cc1 [Fimasartan],Cholesterol-free media + simvastatin (0.04 μM),[1]; [16],1.27
same,Complete Media,[1]; [17],1.222
same,Difference,[1]; [18],−0.05
same,Difference,[2]; [6],−0.08
same,Cholesterol-free,[2]; [7],1.327
same,Complete,[2]; [8],1.249
